The source of these data is patent publication US12173018B2, “Penicillin-binding protein inhibitors” (priority 2018, dated 2024).

For one assay, the target named is E. coli PBP3 (Escherichia coli (strain K12), UniProt P0AD68). Put plainly: E. coli PBP3 Bocillin-FL fluorescence polarization competition binding assay.
E. coli PBP3, sequence (P0AD68 whole entry): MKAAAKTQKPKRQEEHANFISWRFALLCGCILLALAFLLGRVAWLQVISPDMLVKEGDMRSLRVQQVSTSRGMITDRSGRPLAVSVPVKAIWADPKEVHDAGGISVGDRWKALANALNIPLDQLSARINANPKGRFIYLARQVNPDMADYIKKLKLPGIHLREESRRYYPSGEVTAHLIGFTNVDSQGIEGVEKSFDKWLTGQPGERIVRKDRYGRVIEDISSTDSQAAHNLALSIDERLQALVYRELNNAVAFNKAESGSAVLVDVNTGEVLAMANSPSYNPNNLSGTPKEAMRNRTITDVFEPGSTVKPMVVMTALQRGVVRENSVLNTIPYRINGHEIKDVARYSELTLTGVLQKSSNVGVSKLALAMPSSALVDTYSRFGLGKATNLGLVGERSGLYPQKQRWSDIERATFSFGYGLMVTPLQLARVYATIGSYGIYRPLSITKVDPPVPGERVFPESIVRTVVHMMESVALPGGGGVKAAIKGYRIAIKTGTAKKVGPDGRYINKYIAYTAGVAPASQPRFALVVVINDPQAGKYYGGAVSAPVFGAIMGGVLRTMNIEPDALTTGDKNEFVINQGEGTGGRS
Conditions: not given
The text has this: To determine the ability of boronic acid-based test PBP inhibitors to bind Penicillin Binding Proteins (PBPs), Bocillin-FL (fluorescently-labeled penicillin V; ThermoFisher Scientific) was used in a fluorescence polarization (FP) competition binding assay to assess inhibitor binding to PBP2, PBP3 or PBP4 from Escherichia coli. PBPs were cloned and purified as described previously (King, D. T, et al., ACS Infectious Diseases 2015, 1, 175-184). To establish assay conditions for competition binding, an enzyme titration/saturation binding experiment was initially performed. Bocillin-FL was prepared at 0.2 μM in a buffer comprised of 50 mM Hepes (pH 8.0), 300 mM NaCl and 5% (v/v) glycerol. Saturation binding was performed by mixing 40 μl of PBP solutions ranging in concentrations from 0-12 μM with 40 μl of the 0.2 μM Bocillin-FL solution, in individual wells of a black 384-well microplate. FP was measured immediately upon mixing (Excitation, 490 nm; Emission, 520 nm; g-factor, 0.96), using a Cytation3 (BioTek) microplate reader and measured continuously for up to 120 minutes. […] Assays (80 μl final volume) were performed with PBPs at a final concentration of 1.5 μM, Bocillin-FL at 0.1 μM and beta-lactam concentrations that ranged from 0-1000 μM. […] Bocillin-FL was added and the FP immediately measured for 60 minutes (90 minutes for PBP2). The beta-lactam potency was reported as the concentration of beta-lactam required to reduce binding of Bocillin-FL by […] (EC50). […] Binding assays for boronic acid PBP inhibitors were performed in an identical fashion.
On the technique in general: Fluorescence polarisation rises when a labelled molecule tumbles more slowly, as on binding a larger partner.
`CCN1CCN(C(=O)NC(C(=O)N[C@H]2Cc3cccc(C(=O)O)c3OB2O)[C@H](O)C(F)(F)F)C(=O)C1=O` (mixture of isomers) [Example 157, (3R)-3-((3S)-2-(4-ethyl-2,3-dioxopiperazine-1-carboxamido)-4,4,4-trifluoro-3-hydroxybutanamido)-2-hydroxy-3,4-dihydro-2H-benzo[e][1,2]oxaborinine-8-carboxylic acid] gave an EC50 above 500 µM. Same read-out and setting: to `CCN1CCN(C(=O)NC(CC(=O)N[C@H]2Cc3cccc(C(=O)O)c3OB2O)c2cc(O)c(O)c(Br)c2)C(=O)C1=O` (stereo partly drawn) [Example 42, (3R)-3-(3-(3-bromo-4,5-dihydroxyphenyl)-3-(4-ethyl-2,3-dioxopiperazine-1-carboxamido)propanamido)-2-hydroxy-3,4-dihydro-2H-benzo[e][1,2]oxaborinine-8-carboxylic acid] belongs 30 to 500 µM; to `CCN1CCN(C(=O)NC(C(=O)N[C@H]2Cc3cccc(C(=O)O)c3OB2O)c2ccc(O)c(OCCNC(=O)OCc3ccccc3)c2)C(=O)C1=O` (stereo partly drawn) [Example 50, (3R)-3-(2-(3-(2-(((benzyloxy)carbonyl)amino)ethoxy)-4-hydroxyphenyl)-2-(4-ethyl-2,3-dioxopiperazine-1-carboxamido)acetamido)-2-hydroxy-3,4-dihydro-2H-benzo[e][1,2]oxaborinine-8-carboxylic acid], 30 to 500 µM; to `CCN1CCN(C(=O)NC(C(=O)N[C@H]2Cc3cccc(C(=O)O)c3OB2O)c2cccc(OC)n2)C(=O)C1=O` (stereo partly drawn) [Example 120, (3R)-3-(2-(4-ethyl-2,3-dioxopiperazine-1-carboxamido)-2-(6-methoxypyridin-2-yl)acetamido)-2-hydroxy-3,4-dihydro-2H-benzo[e][1,2]oxaborinine-8-carboxylic acid], 30 to 500 µM. Still for that read-out and setting: to `CCN1CCN(C(=O)NC(C(=O)N[C@H]2Cc3cccc(C(=O)O)c3OB2O)C2CCCO2)C(=O)C1=O` (stereo partly drawn) [Example 122, (3R)-3-(2-(4-ethyl-2,3-dioxopiperazine-1-carboxamido)-2-(tetrahydrofuran-2-yl)acetamido)-2-hydroxy-3,4-dihydro-2H-benzo[e][1,2]oxaborinine-8-carboxylic acid] belongs 30 to 500 µM; to `CCN1CCN(C(=O)N[C@H](C(=O)N[C@H]2Cc3ccc(F)c(C(=O)O)c3OB2O)c2ccsc2)C(=O)C1=O` [Example 139, (R)-3-((S)-2-(4-ethyl-2,3-dioxopiperazine-1-carboxamido)-2-(thiophen-3-yl)acetamido)-7-fluoro-2-hydroxy-3,4-dihydro-2H-benzo[e][1,2]oxaborinine-8-carboxylic acid], 30 to 500 µM; to `CCN1CCN(C(=O)N[C@@H](C(=O)N[C@H]2Cc3cccc(C(=O)O)c3OB2O)[C@H](C)OC)C(=O)C1=O` [Example 146, (R)-3-((2R,3S)-2-(4-ethyl-2,3-dioxopiperazine-1-carboxamido)-3-methoxybutanamido)-2-hydroxy-3,4-dihydro-2H-benzo[e][1,2]oxaborinine-8-carboxylic acid], 30 to 500 µM. The same measure, in the same setting: the same measure for `CCN1CCN(C(=O)N[C@@H](C(=O)N[C@H]2Cc3ccc(F)c(C(=O)O)c3OB2O)[C@H](O)C(F)(F)F)C(=O)C1=O` [Example 158, (R)-3-((2R,3S)-2-(4-ethyl-2,3-dioxopiperazine-1-carboxamido)-4,4,4-trifluoro-3-hydroxybutanamido)-7-fluoro-2-hydroxy-3,4-dihydro-2H-benzo[e][1,2]oxaborinine-8-carboxylic acid]: 30 to 500 µM; for `CCN1CCN(C(=O)NC(C(=O)N[C@H]2Cc3ccc(F)c(C(=O)O)c3OB2O)c2cscn2)C(=O)C1=O` (stereo partly drawn) [Example 165, (3R)-3-(2-(4-ethyl-2,3-dioxopiperazine-1-carboxamido)-2-(thiazol-4-yl)acetamido)-7-fluoro-2-hydroxy-3,4-dihydro-2H-benzo[e][1,2]oxaborinine-8-carboxylic acid]: 30 to 500 µM. `CCN1CCN(C(=O)NC(C(=O)N[C@H]2Cc3cc(F)c(F)c(C(=O)O)c3OB2O)c2csc(N)n2)C(=O)C1=O` (stereo partly drawn) [Example 175, (3R)-3-(2-(2-aminothiazol-4-yl)-2-(4-ethyl-2,3-dioxopiperazine-1-carboxamido)acetamido)-6,7-difluoro-2-hydroxy-3,4-dihydro-2H-benzo[e][1,2]oxaborinine-8-carboxylic acid] showed an EC50 of 30 to 500 µM.

`CCN1CCN(C(=O)NC(C(=O)N[C@H]2Cc3c(F)cc(F)c(C(=O)O)c3OB2O)c2csc(N)n2)C(=O)C1=O` (stereo partly drawn) [Example 184, (3R)-3-(2-(2-aminothiazol-4-yl)-2-(4-ethyl-2,3-dioxopiperazine-1-carboxamido)acetamido)-5,7-difluoro-2-hydroxy-3,4-dihydro-2H-benzo[e][1,2]oxaborinine-8-carboxylic acid] came in with an EC50 of 30 to 500 µM. `CCN1CCN(C(=O)NC(C(=O)N[C@H]2Cc3cccc(C(=O)O)c3OB2O)c2csc(N)n2)C(O)C1=O` (stereo partly drawn) [Example 193, (3R)-3-(2-(2-aminothiazol-4-yl)-2-(4-ethyl-2-hydroxy-3-oxopiperazine-1-carboxamido)acetamido)-2-hydroxy-3,4-dihydro-2H-benzo[e][1,2]oxaborinine-8-carboxylic acid] registered an EC50 of 30 to 500 µM.

The assay is the same for the next values; noted with them: fluorescence polarization competition binding with Bocillin-FL; read-out: E. coli K12 PBP3 Potency.
On to `CCN1CCN(C(=O)NC(C(=O)N[C@H]2Cc3cccc(C(=O)O)c3OB2O)c2cccc(O)c2O)C(=O)C1=O` (stereo partly drawn) [Example 44, (3R)-3-(2-(2,3-dihydroxyphenyl)-2-(4-ethyl-2,3-dioxopiperazine-1-carboxamido)acetamido)-2-hydroxy-3,4-dihydro-2H-benzo[e][1,2]oxaborinine-8-carboxylic acid], for which the EC50 was above 500 µM.

Turning to `CCCN1CCN(C(=O)N[C@@H](C(=O)N[C@H]2Cc3ccc(F)c(C(=O)O)c3OB2O)[C@@H](C)O)C(=O)C1=O` [Example 133, (R)-3-((2R,3R)-2-(2,3-dioxo-4-propylpiperazine-1-carboxamido)-3-hydroxybutanamido)-7-fluoro-2-hydroxy-3,4-dihydro-2H-benzo[e][1,2]oxaborinine-8-carboxylic acid], the EC50 is above 500 µM. Still for that read-out and setting: the same measure for `CCN1CCN(C(=O)N[C@H](C(=O)N[C@H]2Cc3cccc(C(=O)O)c3OB2O)[C@H](C)OC)C(=O)C1=O` [Example 147, (R)-3-((2S,3S)-2-(4-ethyl-2,3-dioxopiperazine-1-carboxamido)-3-methoxybutanamido)-2-hydroxy-3,4-dihydro-2H-benzo[e][1,2]oxaborinine-8-carboxylic acid]: above 500 µM; for `CCN1CCN(C(=O)N[C@H](C(=O)N[C@H]2Cc3ccc(F)c(C(=O)O)c3OB2O)[C@H](O)C(F)(F)F)C(=O)C1=O` [Example 159, (R)-3-((2S,3S)-2-(4-ethyl-2,3-dioxopiperazine-1-carboxamido)-4,4,4-trifluoro-3-hydroxybutanamido)-7-fluoro-2-hydroxy-3,4-dihydro-2H-benzo[e][1,2]oxaborinine-8-carboxylic acid]: above 500 µM; for `CCN1CCN(C(=O)N[C@@H](C(=O)N[C@H]2Cc3ccc(F)c(C(=O)O)c3OB2O)[C@H](O)C(F)F)C(=O)C1=O` [Example 163, (R)-3-((2R,3S)-2-(4-ethyl-2,3-dioxopiperazine-1-carboxamido)-4,4-difluoro-3-hydroxybutanamido)-7-fluoro-2-hydroxy-3,4-dihydro-2H-benzo[e][1,2]oxaborinine-8-carboxylic acid]: below 30 µM. On to `CCN1CCN(C(=O)N[C@H](C(=O)N[C@H]2Cc3ccc(F)c(C(=O)O)c3OB2O)[C@H](O)C(F)F)C(=O)C1=O` [Example 164, (R)-3-((2S,3S)-2-(4-ethyl-2,3-dioxopiperazine-1-carboxamido)-4,4-difluoro-3-hydroxybutanamido)-7-fluoro-2-hydroxy-3,4-dihydro-2H-benzo[e][1,2]oxaborinine-8-carboxylic acid], for which the EC50 was above 500 µM. With `CCN1CCN(C(=O)N[C@@H](C(=O)N[C@H]2Cc3cccc(C(=O)O)c3OB2O)[C@H](O)C(F)F)C(=O)C1=O` [Example 173, (R)-3-((2R,3S)-2-(4-ethyl-2,3-dioxopiperazine-1-carboxamido)-4,4-difluoro-3-hydroxybutanamido)-2-hydroxy-3,4-dihydro-2H-benzo[e][1,2]oxaborinine-8-carboxylic acid], the EC50 was above 500 µM. For `CCN1CCN(C(=O)N[C@H](C(=O)N[C@H]2Cc3cccc(C(=O)O)c3OB2O)[C@H](O)C(F)F)C(=O)C1=O` [Example 174, (R)-3-((2S,3S)-2-(4-ethyl-2,3-dioxopiperazine-1-carboxamido)-4,4-difluoro-3-hydroxybutanamido)-2-hydroxy-3,4-dihydro-2H-benzo[e][1,2]oxaborinine-8-carboxylic acid], the EC50 is above 500 µM.
